Measured values: patent publication US11117947B2, “Double-acylated GLP-1 derivatives” (Novo Nordisk A/S, priority 2011, dated 2021)
Numbered stars: 1 amine (or outer) side, 2 acyl side, 3 side chain; on linkers, the order of the positions; unused ones are H or OH. Square brackets hold non-standard residues; d marks the D form. Side chains are listed from the residue outwards. Peptide text beside a SMILES is read from it. * marks the point of attachment. γGlu = O=C(O)[C@H](CCC(=O)[*:2])N[*:1]; C14 diacid = O=C(O)CCCCCCCCCCCCC(=O)*; AEEA = NCCOCCOCC(=O)O; Aib = CC(C)(N)C(=O)O

Key:
[1] = target: T1, human GLP-1 receptor (Homo sapiens, UniProt P43220); experiment: GLP-1 receptor binding: displacement of 125I-GLP-1 (SPA) at low and high albumin; settings: 2.0% HSA vs 0.001% HSA
T1 construct: expressed in transfected cells; membranes
Procedure, shortened: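 Membranes from hamster cells stably transfected with the receptor, with WGA SPA beads and 0.06 nM [^125I]-GLP-1(7-36)NH2, incubated 120 min at 30 °C with shaking.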

[2] = Estimate of oral bioavailability: gut injection in rat (caprate), exposure in plasma; format: in vivo; settings: injection in jejunum, 1000 uM in 55 mg/ml sodium caprate, plasma concentration (pM) at 30 min divided by dosing solution concentration (μM), mean n=4
Procedure, shortened: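 Male Sprague Dawley rats (~240 g, n=4) received 100 μl of 1000 uM derivative in 55 mg/ml sodium caprate by catheter into proximal or mid jejunum. Tail-vein EDTA plasma was sampled up to 240 min. Peptide was quantified by two-antibody bead chemiluminescence immunoassay, giving mean concentration-time profiles (pmol/l).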

T1 sequence (P43220 24-463): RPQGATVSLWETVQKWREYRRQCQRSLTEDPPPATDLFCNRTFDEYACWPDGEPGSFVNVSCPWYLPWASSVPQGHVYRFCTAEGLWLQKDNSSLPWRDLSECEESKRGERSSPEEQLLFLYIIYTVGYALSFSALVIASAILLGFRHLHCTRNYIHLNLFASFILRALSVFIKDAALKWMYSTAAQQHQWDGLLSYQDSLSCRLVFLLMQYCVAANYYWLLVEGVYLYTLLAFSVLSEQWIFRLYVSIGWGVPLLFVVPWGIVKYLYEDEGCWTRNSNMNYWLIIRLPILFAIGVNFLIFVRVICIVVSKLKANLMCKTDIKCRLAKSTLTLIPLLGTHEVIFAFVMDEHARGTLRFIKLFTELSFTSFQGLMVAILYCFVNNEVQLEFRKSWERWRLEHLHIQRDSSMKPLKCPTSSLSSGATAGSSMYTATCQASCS

SMILES: CC[C@H](C)[C@H](NC(=O)[C@H](Cc1ccccc1)NC(=O)[C@H](CCCCNC(=O)COCCOCCNC(=O)COCCOCCNC(=O)CC[C@H](NC(=O)CCCCCCCCCCCCC(=O)O)C(=O)O)NC(=O)[C@H](CCCNC(=N)N)NC(=O)[C@@H](NC(=O)[C@H](C)NC(=O)[C@H](CCC(N)=O)NC(=O)[C@H](CCCCNC(=O)COCCOCCNC(=O)COCCOCCNC(=O)CC[C@H](NC(=O)CCCCCCCCCCCCC(=O)O)C(=O)O)NC(=O)[C@H](CCC(=O)O)NC(=O)[C@H](CC(C)C)NC(=O)[C@H](Cc1ccc(O)cc1)NC(=O)[C@H](CO)NC(=O)[C@H](CO)NC(=O)[C@@H](NC(=O)[C@H](CC(=O)O)NC(=O)[C@H](CO)NC(=O)[C@@H](NC(=O)[C@H](Cc1ccccc1)NC(=O)[C@@H](NC(=O)CNC(=O)[C@H](CCC(=O)O)NC(=O)C(C)(C)NC(=O)[C@@H](N)Cc1c[nH]cn1)[C@@H](C)O)[C@@H](C)O)C(C)C)C(C)C)C(=O)N[C@@H](C)C(=O)N[C@@H](Cc1c[nH]cn1)C(=O)N[C@@H](CC(C)C)C(=O)N[C@H](C(=O)N[C@@H](CCCNC(=N)N)C(=O)NCC(=O)N[C@@H](CCCNC(=N)N)C(=O)NCC(=O)O)C(C)C [Example 7, N^ε22-[2-[2-[2-[[2-[2-[2-[[(4S)-4-carboxy-4-(13-carboxytridecanoylamino)butanoyl]amino]ethoxy]ethoxy]acetyl]amino]ethoxy]ethoxy]acetyl],N^ε27-[2-[2-[2-[[2-[2-[2-[[(4S)-4-carboxy-4-(13-carboxytridecanoylamino)butanoyl]amino]ethoxy]ethoxy]acetyl]amino]ethoxy]ethoxy]acetyl]-[Aib^8,Lys^22,Val^25,Arg^26,Lys^27,His^31,Arg^34]-GLP-1-(7-37)-peptide] (H-H[Aib]EGTFTSDVSSYLEK([AEEA-AEEA-γGlu-C14 diacid])QAVRK([AEEA-AEEA-γGlu-C14 diacid])FIAHLVRGRG-OH)
- Ratio [(IC50/nM) high HSA]/[(IC50/nM) low HSA] [1]: 174
- Dose-corrected exposure at 30 min [2]: 99

SMILES: CC[C@H](C)[C@H](NC(=O)[C@H](Cc1ccccc1)NC(=O)[C@H](CCCCNC(=O)COCCOCCNC(=O)COCCOCCNC(=O)CC[C@H](NC(=O)CCCCCCCCCCCCC(=O)O)C(=O)O)NC(=O)[C@H](CCCNC(=N)N)NC(=O)[C@@H](NC(=O)[C@H](C)NC(=O)[C@H](CCC(N)=O)NC(=O)[C@H](CCCCNC(=O)COCCOCCNC(=O)COCCOCCNC(=O)CC[C@H](NC(=O)CCCCCCCCCCCCC(=O)O)C(=O)O)NC(=O)[C@H](CCC(=O)O)NC(=O)[C@H](CC(C)C)NC(=O)[C@H](Cc1ccc(O)cc1)NC(=O)[C@H](CO)NC(=O)[C@H](CO)NC(=O)[C@@H](NC(=O)[C@H](CC(=O)O)NC(=O)[C@H](CO)NC(=O)[C@@H](NC(=O)[C@H](Cc1ccccc1)NC(=O)[C@@H](NC(=O)CNC(=O)[C@H](CCC(=O)O)NC(=O)C(C)(C)NC(=O)[C@@H](N)Cc1c[nH]cn1)[C@@H](C)O)[C@@H](C)O)C(C)C)C(C)C)C(=O)N[C@@H](C)C(=O)N[C@@H](Cc1c[nH]c2ccccc12)C(=O)N[C@@H](CC(C)C)C(=O)N[C@H](C(=O)N[C@@H](CCCNC(=N)N)C(=O)O)C(C)C [Example 8, N^ε22-[2-[2-[2-[[2-[2-[2-[[(4S)-4-carboxy-4-(13-carboxytridecanoylamino)butanoyl]amino]ethoxy]ethoxy]acetyl]amino]ethoxy]ethoxy]acetyl], N^ε27-[2-[2-[2-[[2-[2-[2-[[(4S)-4-carboxy-4-(13-carboxytridecanoylamino)butanoyl]amino]ethoxy]ethoxy]acetyl]amino]ethoxy]ethoxy]acetyl]-[Aib^8,Lys^22,Val^25,Arg^26,Lys^27,Arg^34]-GLP-1-(7-34)-peptide] (H-H[Aib]EGTFTSDVSSYLEK([AEEA-AEEA-γGlu-C14 diacid])QAVRK([AEEA-AEEA-γGlu-C14 diacid])FIAWLVR-OH)
- Ratio [(IC50/nM) high HSA]/[(IC50/nM) low HSA] [1]: 57
- Dose-corrected exposure at 30 min [2]: 86
